According to patent US20030130799A1, “Structure/properties correlation with membrane affinity profile” (priority 2001, published 2003):
Read-outs that look alike come from different tables or passages of the source.

Columns and labels:
[1] = IAM chromatography membrane affinity (κ′) on esterIAM.PS C10/C3 column; conditions: for Log PS (log κ′ on esterIAM.PS C10/C3): 15% acetonitrile in 0.01M PBS buffer (pH 7.4) mobile phase
[2] = IAM chromatography membrane affinity (κ′) on esterIAM.PE C10/C3 column; conditions: for LOG PE (log κ′ on esterIAM.PE C10/C3): 15% acetonitrile in 0.01M PBS buffer (pH 7.4) mobile phase
[3] = cited from earlier work; for Vd Observed: Table 2, 70-kg patient assumed; for Volume of Distribution (Ref.) category in brackets: class of the reference value
plasma proteins [4] = conditions: cited from earlier work; for Protein Binding Observed: Table 3
[5] = cited from earlier work; for Clearance (Ref.): Table 5, Study 1, category; for total body clearance Observed: Table 4
plasma proteins [6] = assay: Prediction of protein binding from IAM membrane affinity standard curve; design: species or system human; conditions: Table 3; predicted using IAM k′ data (FIG. 20)
[7] = Prediction of clearance from IAM membrane affinity standard curve; design: species or system human; conditions: Table 4; predicted using IAM k′ data
[8] = Prediction of volume of distribution from IAM membrane affinity standard curve; conditions: Table 2; predicted using IAM k′ data (FIG. 19)
[9] = column volumes of mobile phase needed to elute
[10] = known ADME properties of the parent compound

Structure (SMILES): COc1cc(Cc2cnc(N)nc2N)cc(OC)c1OC [trimethoprim]
- κ′ on the esterIAM.PS C10/C3 column [1, 9]: 10
- affinity for the esterIAM.PS C10/C3 column compared to the esterIAM.PE column ([1]; ratio of κ′ PS / κ′ PE): ~5 times
- κ′ on the esterIAM.PE C10/C3 column [2, 9]: 2

Structure (SMILES): O=C1CN=C(c2ccccc2Cl)c2cc([N+](=O)[O-])ccc2N1 [clonazepam]
- Volume of Distribution (L) (Ref.) ([3]; Table 5, Study 1): 210 L
- Vd [3, 10]: 224 L
- % Protein Binding (Ref.) (plasma proteins [4]; Table 5, Study 1): 86%
- Protein binding (plasma proteins [4]; [10]): 86%
- Clearance (Ref.) [5]: low
- CL [5, 10]: 0.109 L/min

Structure (SMILES): CC(C)(C)NCC(O)c1cc(O)cc(O)c1 (stereo not shown) [terbutaline]
- Volume of Distribution (L) (Ref.) ([3]; Table 6, Study 2): 126 L
- % Protein Binding (Ref.) (plasma proteins [4]; Table 6, Study 2): 20%

Structure (SMILES): CCCN(CCC)CCc1cccc2c1CC(=O)N2 [Ropinirole]
- Protein Binding Predicted (plasma proteins [6]): 40-90
- total body clearance Predicted [7]: HIGH > 0.327 (HIGH > 0.327)
- Vd Observed [3]: 525 L
- Protein Binding Observed (plasma proteins [4]): 68
- Vd Predicted [8]: VERY HIGH (>250 L) (VERY HIGH (>250 L))

Structure (SMILES): CN1C(=O)CN=C(c2ccccc2F)c2cc([N+](=O)[O-])ccc21 [flunitrazepam]
- % Protein Binding (Ref.) (plasma proteins [4]; Table 5, Study 1): 77%

Structure (SMILES): COc1ccc([C@@H]2Sc3ccccc3N(CCN(C)C)C(=O)[C@@H]2OC(C)=O)cc1 [Diltiazem]
- total body clearance Predicted [7]: HIGH > 0.327 (HIGH > 0.327)
- Vd Observed [3]: 217 L
- Protein Binding Observed (plasma proteins [4]): 78
- total body clearance Observed [5]: 0.84
- Log PS (log κ′ on esterIAM.PS C10/C3) [1]: 2.54
- LOG PE (log κ′ on esterIAM.PE C10/C3) [2]: 1.87

Structure (SMILES): CC(C)NCC(O)COc1cccc2ccccc12 (stereo not shown) [propranolol]
- Volume of Distribution (L) (Ref.) ([3]; Table 6, Study 2): 301 L

Structure (SMILES): CCCC(=O)Nc1ccc(OCC(O)CNC(C)C)c(C(C)=O)c1 (stereo not shown) [acebutolol]
- Volume of Distribution (L) (Ref.) ([3]; Table 6, Study 2): 84 L

Structure (SMILES): Fc1ccc([C@@H]2CCNC[C@H]2COc2ccc3c(c2)OCO3)cc1 [Paroxetine]
- Protein Binding Predicted (plasma proteins [6]): Greater than 90
- total body clearance Predicted [7]: HIGH > 0.327 (HIGH > 0.327)
- Vd Observed [3]: 1190 L
- Protein Binding Observed (plasma proteins [4]): 95
- total body clearance Observed [5]: 0.602
- Log PS (log κ′ on esterIAM.PS C10/C3) [1]: 3.37
- LOG PE (log κ′ on esterIAM.PE C10/C3) [2]: 2.33

Structure (SMILES): COCCc1ccc(OCC(O)CNC(C)C)cc1 (stereo not shown) [metoprolol]
- Volume of Distribution (L) (Ref.) ([3]; Table 6, Study 2): 294 L

Structure (SMILES): O=C(NCC1CCCCN1)c1cc(OCC(F)(F)F)ccc1OCC(F)(F)F (stereo not shown) [flucainide]
- Volume of Distribution (L) (Ref.) ([3]; Table 6, Study 2): 343 L
- % Protein Binding (Ref.) (plasma proteins [4]; Table 6, Study 2): 61%

Structure (SMILES): CC(C)(C)NCC(O)COc1cccc2c1CC(O)C(O)C2 (stereo not shown) [nadolol]
- Volume of Distribution (L) (Ref.) ([3]; Table 6, Study 2): 133 L
- % Protein Binding (Ref.) (plasma proteins [4]; Table 6, Study 2): 20%

Structure (SMILES): Cc1cccc(C)c1OCC(C)N (stereo not shown) [mexiletine]
- Volume of Distribution (L) (Ref.) ([3]; Table 6, Study 2): 343 L
- % Protein Binding (Ref.) (plasma proteins [4]; Table 6, Study 2): 63%

Structure (SMILES): CNCCC(Oc1ccc(C(F)(F)F)cc1)c1ccccc1 (stereo not shown) [fluoxetine]
- Volume of Distribution (L) (Ref.) ([3]; Table 6, Study 2): 2450 L
- % Protein Binding (Ref.) (plasma proteins [4]; Table 6, Study 2): 94%

Structure (SMILES): Nc1nc2c(ncn2COCCO)c(=O)[nH]1 [Acyclovir]
- LOG PE (log κ′ on esterIAM.PE C10/C3) [2]: −1.17

Structure (SMILES): O=C1Nc2ccc(Cl)cc2C(c2ccccc2Cl)=NC1O (stereo not shown) [lorazepam]
- Volume of Distribution (L) (Ref.) ([3]; Table 5, Study 1): 91 L
- Volume of Distribution (Ref.) category in brackets ([3]; Table 5, Study 1): (high) (“high” (70-250 L))
- Clearance (Ref.) [5]: low

Structure (SMILES): O=C1CN=C(c2ccccc2)c2cc([N+](=O)[O-])ccc2N1 [nitrazepam]
- Volume of Distribution (L) (Ref.) ([3]; Table 5, Study 1): 133 L
- Volume of Distribution (Ref.) category in brackets ([3]; Table 5, Study 1): (high) (“high” (70-250 L))
- Clearance (Ref.) [5]: low

Structure (SMILES): CNC(=C[N+](=O)[O-])NCCSCc1ccc(CN(C)C)o1 [Ranitidine]
- Vd Observed [3]: 91 L
- Protein Binding Observed (plasma proteins [4]): 15
- Log PS (log κ′ on esterIAM.PS C10/C3) [1]: 0.83
- LOG PE (log κ′ on esterIAM.PE C10/C3) [2]: 0.15

Structure (SMILES): CCCCC1C(=O)N(c2ccccc2)N(c2ccccc2)C1=O [phenylbutazone]
- Volume of Distribution (L) (Ref.) ([3]; Table 6, Study 2): 7 L

Structure (SMILES): CC(CCc1ccccc1)NCC(O)c1ccc(O)c(C(N)=O)c1 (stereo not shown) [labetalol]
- % Protein Binding (Ref.) (plasma proteins [4]; Table 6, Study 2): 50%

Structure (SMILES): Nc1nnc(-c2cccc(Cl)c2Cl)c(N)n1 [Lamotrigine]
- total body clearance Predicted [7]: LOW < 0.327 (LOW < 0.327)
- Vd Observed [3]: 91 L
- Protein Binding Observed (plasma proteins [4]): 55
- Log PS (log κ′ on esterIAM.PS C10/C3) [1]: 0.96
